This passage reports IC50 results from US20220204539A1, “CD73 INHIBITORS” (BioArdis LLC, priority 2019, published 2022).

In assay [1] the target is T1, Cell surface CD73 of U87 MG human glioblastoma cells (Homo sapiens, UniProt P21589).
T1 construct: Cell surface CD73 catalyzes the conversion of adenosine monophosphate (AMP) to adenosine and inorganic phosphate; endogenous in cells; host or cells: U87 MG human glioblastoma cells
T1 sequence (P21589 27-549): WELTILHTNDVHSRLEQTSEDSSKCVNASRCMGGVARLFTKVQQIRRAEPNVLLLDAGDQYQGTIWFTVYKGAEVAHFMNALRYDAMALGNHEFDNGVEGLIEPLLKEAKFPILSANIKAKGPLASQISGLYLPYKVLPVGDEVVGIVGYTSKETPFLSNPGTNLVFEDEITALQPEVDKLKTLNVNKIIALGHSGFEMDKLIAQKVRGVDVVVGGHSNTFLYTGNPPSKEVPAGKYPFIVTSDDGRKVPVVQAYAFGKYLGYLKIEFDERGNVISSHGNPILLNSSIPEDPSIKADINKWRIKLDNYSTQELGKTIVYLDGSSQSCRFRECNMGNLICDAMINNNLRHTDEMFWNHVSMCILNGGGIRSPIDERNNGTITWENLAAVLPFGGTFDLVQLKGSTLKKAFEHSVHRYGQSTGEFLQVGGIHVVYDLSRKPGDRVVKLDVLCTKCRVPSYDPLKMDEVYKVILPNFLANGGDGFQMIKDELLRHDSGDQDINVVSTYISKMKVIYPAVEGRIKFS
Briefly: CD73 Cellular Assay. The note with it: 5000 cells per well, 30 μM AMP substrate, read-out: Potency (IC50, CD73 cellular assay). Type of assay: cell-based. Here is the method: Cell surface CD73 catalyzes the conversion of adenosine monophosphate (AMP) to adenosine and inorganic phosphate. U87 MG human glioblastoma cells express high level of CD73. Cells are treated with compounds in a 96-well assay plate and supernatants are collected into a 384-well detection plate. The concentration of inorganic phosphate (Pi) in the supernatants is determined using the phosphate detection reagent, PiColorLock™ (Innova Bioscience, Cat #303-0125) following the manufacturer's instructions.
Briefly, on the day of the assay, U87 MG cells were harvested and resuspended in assay buffer which consisted of 20 mM HEPES, pH=7.4, 137 mM NaCl, 5.4 mM KCl, 1.3 mM CaCl2, 4.2 mM NaHCO3 and 0.1% glucose. To test the effect of compounds on cellular CD73 enzymatic activity, 500 nL/well of compounds dissolved in DMSO were added to a 96-well TC-treated microplate (Corning #3599). Next, 80 μL/well of U87 MG cells in assay buffer were added to assay plate. After 30 minutes of incubation in an atmosphere of 5% CO2 at 37° C., 20 μL/well of 150 μM AMP (Adenosine 5′-monophosphate monohydrate, Sigma, Cat #01930) in assay buffer was added to assay plate. Final assay conditions consisted of 5000 cells per well in 0.5% DMSO and 30 μM AMP substrate. After 50 minutes of incubation in an atmosphere of 5% CO2 at 37° C., 50 μL/well of supernatant was transferred to the 384-well detection plate (Corning® NBS™ 384 well plates, Cat #3640). Meanwhile “Gold mix” was prepared shortly before use by adding 1/100 volume of accelerator to the PiColorLock™ Gold reagent. 12 μL/well of the “Gold mix” was added to detection plate containing 50 μL/well of supernatant and incubated at 25° C. for 5 minutes. 5 μL/well stabilizer was added to the detection plate and incubated at 25° C. for 30 minutes. The absorbance at 635 nm was measured on a Spark 10M instrument (TECAN). The percent (%) inhibition at each concentration of a compound was calculated relative to the OD value in the Max and Min control wells contained within each assay plate. The Max control wells contained cells and substrate as 0% inhibition, and the Min control wells only contained cells as 100% inhibition. The concentrations and percent inhibition values for a test compound are plotted and the concentration of a the compound required to achieve 50% inhibition (IC50) was determined with a four-parameter logistic dose response equation.

The target in assay [2] is T2, Recombinant Human 5′-Nucleotidase (CD73) (Homo sapiens, UniProt P21589).
T2 construct: CHO derived CD73 (Trp27-Lys547), with a C-terminal 6-His tag; 6-His (C); purchased R&D 5795-EN; host or cells: CHO
T2 sequence (P21589 27-547): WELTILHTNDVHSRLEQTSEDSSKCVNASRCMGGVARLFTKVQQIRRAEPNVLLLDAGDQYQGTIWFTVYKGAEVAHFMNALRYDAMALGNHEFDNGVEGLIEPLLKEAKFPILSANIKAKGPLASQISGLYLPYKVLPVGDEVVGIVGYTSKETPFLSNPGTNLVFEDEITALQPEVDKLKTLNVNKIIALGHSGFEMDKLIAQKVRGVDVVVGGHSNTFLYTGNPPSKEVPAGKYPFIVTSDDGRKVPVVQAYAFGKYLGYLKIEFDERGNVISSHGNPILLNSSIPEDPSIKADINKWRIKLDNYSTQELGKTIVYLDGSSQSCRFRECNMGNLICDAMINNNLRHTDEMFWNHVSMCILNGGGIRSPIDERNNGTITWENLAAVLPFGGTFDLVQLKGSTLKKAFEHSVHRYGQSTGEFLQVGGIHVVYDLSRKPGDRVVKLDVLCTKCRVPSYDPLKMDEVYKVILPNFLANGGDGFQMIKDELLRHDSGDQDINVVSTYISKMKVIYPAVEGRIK
Briefly: CD73 Enzyme Assay. Type of assay: biochemical. The note with it: human CD73 0.5 nM, AMP 30 μM, PiColorLock phosphate detection; read-out: Potency (IC50, CD73 enzyme assay). An excerpt:
Soluble recombinant CD73 catalyzes the conversion of adenosine monophosphate (AMP) to adenosine and inorganic phosphate. The phosphate detection reagent, PiColorLock™ (Innova Bioscience, Cat #303-0125) is based on the change in absorbance of the dye malachite green in the presence of inorganic phosphate (Pi) and this property can be exploited to measure any enzyme that generates Pi. Recombinant Human 5′-Nucleotidase (CD73) (R&D #5795-EN, CHO derived CD73 (Trp27-Lys547), with a C-terminal 6-His tag) was used in the enzymatic assay. This assay was run in a 384-well plate format (Corning® NBS™ 384 well plates, Cat #3640). The basic assay procedure involves two steps: 1) Enzyme reaction: The CD73 enzyme (R&D #5795-EN) is incubated in the presence or absence of compounds. AMP (sigma, cat #01930) is added to start the […] reaction. 2) Detection step: Gold mix is added to the assay system, then stabilizers are added. After incubation the absorbance of the solution is read at OD 635 nm. The recorded OD signal is proportional to the enzyme activity.
Briefly, 25 μl human CD73 (0.5 nM final concentration) in the enzymatic buffer solutions (20 mM Tris, 25 mM NaCl, 1 mM MgCl2, pH 7.5, 0.005% Tween-20) were mixed with various concentrations of the test compound (dissolved in 100% DMSO). These solutions were incubated for 15 min at 25° C., and subsequently 25 μl AMP (30 μM final concentration) was added to start the reaction. The final reaction mixture of enzyme-substrate-compound was incubated for 20 min at 37° C. Meanwhile ‘Gold mix’ was prepared shortly before use by adding 1/100 vol. of accelerator to the PiColorLock™ Gold reagent. 12 μL/well of the ‘Gold mix’ was added to assay plate containing 50 μL enzyme reaction buffer and incubated at 25° C. for 5 min. 5 μL/well stabilizer was added to the assay plate and incubated at 25° C. for 30 min. The absorbance of the well solutions was measured at 635 nm on a Spark 10M instrument (TECAN).
The percent (%) inhibition at each concentration of a compound was calculated relative to the OD value in the Max and Min control wells contained within each assay plate. The Max control wells contained enzyme and substrate as 0% inhibition, and the M control wells only contained substrate without enzyme as 100% inhibition. The concentrations and percent inhibition values for a test compound are plotted and the concentration of the compound required to achieve 50% inhibition (IC50) was determined with a four-parameter logistic dose response equation.

As usually defined, the IC50 is the concentration at which inhibition is half-maximal. Take `O=P(O)(O)CP(=O)(O)OC[C@H]1O[C@@H](c2cnc3c(NC4CCCC4)nc(Cl)nn23)[C@H](O)[C@@H]1O` [Compound 5, (((((2R,3S,4R,1S)-5-(2-chloro-4-(cyclopentylamino)imidazo[2,1-f][1,2,4]triazin-7-yl)-3,4-dihydroxytetrahydrofuran-2-yl)methoxy)(hydroxy)phosphoryl)methyl)phosphonic acid]: the values for the half-inhibitory concentration (IC50) in assay [1] and in assay [2] were less than 1 nM and less than 10 nM, respectively.
The matching figures for `O=P(O)(O)CP(=O)(O)OC[C@H]1O[C@@H](c2cnc3c(NCc4ccccc4)nc(Cl)nn23)[C@H](O)[C@@H]1O` [Compound 6, (((((2R,3S,4R,1S)-5-(4-(benzylamino)-2-chloroimidazo[2,1-f][1,2,4]triazin-7-yl)-3,4-dihydroxytetrahydrofuran-2-yl)methoxy)(hydroxy)phosphoryl)methyl)phosphonic Acid]: less than 1 nM and less than 10 nM.
Take `CN(c1nc(Cl)nn2c([C@@H]3O[C@H](COP(=O)(O)CP(=O)(O)O)[C@@H](O)[C@H]3O)cnc12)C1CCCC1` [Compound 8, (((((2R,3S,4R,1S)-5-(2-chloro-4-(cyclopentyl(methyl)amino)imidazo[2,1-f][1,2,4]triazin-7-yl)-3,4-dihydroxytetrahydrofuran-2-yl)methoxy)(hydroxy)phosphoryl)methyl)phosphonic acid]: the values for the IC50 in assay [1] and in assay [2] were less than 1 nM and less than 10 nM, respectively.
In the same order, the values of `O=P(O)(O)CP(=O)(O)OC[C@H]1O[C@@H](c2cnc3c(NC4CCc5ccccc54)nc(Cl)nn23)[C@H](O)[C@@H]1O` (stereo partly drawn) [Compound 9, (((((2R,3S,4R,1S)-5-(2-chloro-4-((2,3-dihydro-1H-inden-1-yl)amino)imidazo[2,1-f][1,2,4]triazin-7-yl)-3,4-dihydroxytetrahydrofuran-2-yl)methoxy)(hydroxy)phosphoryl)methy)phosphonic acid] are less than 1 nM and less than 10 nM.
The matching figures for `O=P(O)(O)CP(=O)(O)OC[C@H]1O[C@@H](c2cnc3c(N4CC5CCCC5C4)nc(Cl)nn23)[C@H](O)[C@@H]1O` (stereo partly drawn) [Compound 10, (((((2R,3S,4R,1S)-5-(2-chloro-4-(hexahydrocyclopenta[c]pyrrol-2(1H)-yl)imidazo[2,1-f][1,2,4]triazin-7-yl)-3,4-dihydroxytetrahydrofuran-2-yl)methoxy)(hydroxy)phosphoryl)methy)phosphonic acid]: less than 1 nM and less than 10 nM.
Take `O=P(O)(O)CP(=O)(O)OC[C@H]1O[C@@H](c2cnc3c(NCc4ccccc4Cl)nc(Cl)nn23)[C@H](O)[C@@H]1O` [Compound 11, [({[(2R,3S,4R,5S)-5-(2-chloro-4-{[(2-chlorophenyl)methyl]amino}imidazo[2,1-f][1,2,4]triazin-7-yl)-3,4-dihydroxyoxolan-2-yl]methoxy}(hydroxy)phosphoryl)methyl]phosphonic acid]: the IC50 is less than 1 nM in assay [1] and less than 10 nM in assay [2].
For `O=P(O)(O)CP(=O)(O)OC[C@H]1O[C@@H](c2cnc3c(NCC4CCOC4)nc(Cl)nn23)[C@H](O)[C@@H]1O` (stereo partly drawn) [Compound 12, (((((2R,3S,4R,1S)-5-(2-chloro-4-(((tetrahydrofuran-3-yl)methyl)amino)imidazo[2,1-f][1,2,4]triazin-7-yl)-3,4-dihydroxytetrahydrofuran-2-yl)methoxy)(hydroxy)phosphoryl)methyl) phosphonic Acid], the 50% inhibitory concentration (IC50) in assay [1] was less than 1 nM; in assay [2], less than 10 nM.
The matching figures for `O=P(O)(O)CP(=O)(O)OC[C@H]1O[C@@H](c2cnc3c(NC4CCOC4)nc(Cl)nn23)[C@H](O)[C@@H]1O` (stereo partly drawn) [Compound 14, [({[(2R,3S,4R,5S)-5-[2-chloro-4-(oxolan-3-ylamino)imidazo[2,1-f][1,2,4]triazin-7-yl]-3,4-dihydroxyoxolan-2-yl]methoxy}(hydroxy)phosphoryl)methyl]phosphonic acid]: less than 1 nM and less than 10 nM.
The matching figures for `O=P(O)(O)CP(=O)(O)OC[C@H]1O[C@@H](c2coc3c(NCc4ccccc4)nc(Cl)nc23)[C@H](O)[C@@H]1O` [Compound 15, [({[(2R,3S,4R,5S)-5-[4-(benzylamino)-2-chlorofuro[3,2-d]pyrimidin-7-yl]-3,4-dihydroxyoxolan-2-yl]methoxy}(hydroxy)phosphoryl)methyl]phosphonic Acid]: less than 1 nM and less than 10 nM.
The matching figures for `O=P(O)(O)CP(=O)(O)OC[C@H]1O[C@@H](c2ccc3c(NCc4ccccc4)ncnn23)[C@H](O)[C@@H]1O` [Compound 16, (((((2R,3S,4R,1S)-5-(4-(benzylamino)pyrrolo[2,1-f][1,2,4]triazin-7-yl)-3,4-dihydroxytetrahydrofuran-2-yl)methoxy)(hydroxy)phosphoryl)methyl)phosphonic acid]: 1 to 9.9 nM and 10 to 99 nM.
